Data: US11731977B2, “SGC stimulators” (Cyclerion Therapeutics, Inc., priority 2016, dated 2023)

Key:
rats = test: Inflammatory pain: carrageenan, paw pressure test (Example 13); type: in vivo, rat; details: Compound I-1 p.o. 10 mg/kg, 120 minutes after treatment
male Long Evans rats = test: Novel Object Recognition (NOR) test, MK-801-induced memory disruption (Example 10); type: in vivo, rat; details: for reversal of MK-801-induced memory deficits (Recognition Index): Galantamine 1 mg/kg, vs Vehicle/MK-801; for Recognition Index, Mean: 0 to 3 minute time bin
Source text: Objective. To assess the efficacy of compounds of the invention in reversing memory disruption induced by MK-801 using the Novel Object Recognition (NOR) test in male Long Evans rats. The NOR is a test of recognition learning and memory retrieval, which takes advantage of the spontaneous preference of rodents to investigate a novel object compared with a familiar one (Ennaceur and Delacour, 1988). […] The NOR test has been employed extensively to assess the potential cognitive-enhancing properties of novel test compounds. […] In the present study, a memory saving model was used to test the novel compound—MK-801 (Dizocilpine), an uncompetitive antagonist of the NMD A receptor was used to cause deficit of recognition memory. Compounds of the invention were evaluated through its efficacy in reversing memory impairment.
Animals. Adult male Long-Evans rats (275-299 gram at arrival from Envigo, Indianapolis, Ind.) were used in this study. Rats were placed in the experimental rooms and assigned unique identification numbers (tail marks). Rats were housed 2 per cage in polycarbonate cages with filter tops and acclimated for at least 7 days prior to testing. Animal room was maintained in a 12/12 h light/dark cycle (lights on at 07.00 EST), 22±1° C. and relative humidity at approximately 50%. Food and water were provided ad libitum. All animals were examined, handled and weighed prior to the study to assure adequate health and to minimize the non-specific stress associated with testing. Each animal was randomly assigned across the treatment groups. The experiments were conducted during the animal's light cycle phase.
MK-801 (0.1 mg/kg; Sigma-Aldrich) was dissolved in saline and injected IP 15 min prior to NOR training.
Galantamine (1 mg/kg; Tocris) was dissolved in saline and injected IP 15 minutes prior to training.
Compound I-1 (0.01, 0.1, and 1 mg/kg) was oral administrated 60 minutes prior to training. The dose volume was 4 ml/kg
Experimental procedures. NOR test was conducted in an open-field arena (40×40 cm) placed in a sound-attenuated room under dimmed lighting. Each rat was tested separately and care was taken to remove olfactory/taste cues by cleaning the arena and test objects with 70% alcohol between trials and rats. All training and testing trials were video-taped and scored by an observer blind to treatments.
On Days 1 and 2, rats were allowed to freely explore the arena (no objects inside) for a 5-minute habituation period. On Day 3 (training and testing day), rats were administered vehicle (saline), galantamine or compound solutions followed by MK-801 or vehicle (saline). After the pretreatment time, each animal was placed into the test arena in the presence of two identical objects. Each rat was placed in the arena facing the same direction at the same position, and the time spent actively exploring the objects during a 3-minute training period (T1) was recorded. The rat was returned to its home cage following training. NOR test (T2) was conducted 1 hours after T1. Each rat was placed back into the test arena in the presence of one familiar object and one novel object for 5 minutes, and the time spent exploring both objects was recorded during 0-1, 0-3 and 0-5 min time ranges. The presentation order and position of the objects (left/right) in T2 was randomized between rats to prevent bias from order or place preference.
Statistical Analysis. Data of NOR test (T2) were expressed as Recognition Index, which is defined as the ratio of the time spent exploring the novel object over the total time spent exploring both objects (Novel/(Familiar+Novel)×100%) during the test session. Data were analyzed by using one-way ANOVA followed by Fisher's LSD post hoc test on 0-1, 0-3 and 0-5 minute time range separately, with significance set at P<0.05. […] And then statistical outliers that fell above or below two standard deviations from the mean were removed from the final analysis. […]

[1] = tested on: Sprague-Dawley rats, streptozotocin model; test: Rat model of diabetic neuropathy (STZ model), paw pressure test (Example 14); type: in vivo; details: Compound I-1 10 mg/kg p.o., mean±s.e.m.
[2] = Dog cerebrospinal fluid (CSF) pharmacokinetic properties (Example 5); type: in vivo; details: male, beagle, 1 mg/kg PO
Protocol: Protocol PK in dogs was determined following oral dosing. A group of 4 male beagle dogs were used and the dogs were dosed with 1 mg/kg of a compound formulated as a suspension in 1% HPMC E5, 0.2% Tween 80, and 0.5% MC in water. PO doses were administered by oral gavage in a gelatin capsule and delivered to the stomach using a gavage tube. Following oral dosage administration, the gavage tube was flushed with approximately 10 mL of water to ensure complete delivery of the full dose.
Plasma and CSF samples were collected as follows: samples of CSF and blood were collected at 1, 2, 4 and 8 hours post PO dosing. CSF samples (0.05 mL) were collected from the lumbosacral region (L4/5) via direct needle puncture at the appropriate time points. Blood samples (0.25 mL) were collected via cephalic vein. These samples were kept on ice until processed for plasma. Blood samples were centrifuged at 3200 rpm for 5 minutes at approximately 5° C. within 1 hour of collection. Plasma was directly transferred to a 96-well plate tube (0.125 mL). Plug caps were placed on the tubes and the tubes frozen at approximately −70° C. and stored until analysis. Plasma was collected and analyzed for the presence of a compound.
Quantitation of Compounds. The compound of the invention and the internal standard were extracted from plasma and CSF by precipitation. Samples were analyzed using liquid chromatography (LC) with tandem mass spectrometric detection (MS/MS) using electrospray ionization. The standard curve range was from 1 to 1000 ng/mL. Results of the compounds described herein in this assay are illustrated in Tables 5a and 5b below (1 mg/kg dose).
Kp,uu is defined as the concentration ratio of unbound drug in CSF to unbound drug in plasma. Unbound drug in plasma (or free plasma concentration) is calculated by multiplying the total plasma concentration by the unbound fraction as determined by plasma protein binding. The CSF concentration is then divided by the free plasma concentration to determine the Kp,uu. (See e.g., Di et al., J. Med. Chem 56, 2-12 (2013))

Kp uu at 1 h ([2]; CSF / unbound plasma, @ 1 h): 0.7 | Kp uu at 2 h ([2]; CSF / unbound plasma, @ 2 h): 0.7 | Kp uu at 4 h ([2]; CSF / unbound plasma, @ 4 h): 0.7 | Kp uu at 8 h ([2]; CSF / unbound plasma, @ 8 h): 0.4 | concentration at 1 h ([2]; CSF, @ 1 h, read-out: CSF Conc.): 34 nM | concentration at 2 h ([2]; CSF, @ 2 h, read-out: CSF Conc.): 34 nM | concentration at 4 h ([2]; CSF, @ 4 h, read-out: CSF Conc.): 19 nM | concentration at 8 h ([2]; CSF, @ 8 h, read-out: CSF Conc.): 2.4 nM
SMILES: Fc1ccccc1Cc1nc(-c2nc(C(F)(F)F)n[nH]2)cn2ccnc12 [Compound I-1, 8-(2-fluorobenzyl)-6-(3-(trifluoromethyl)-1H-1,2,4-triazol-5-yl)imidazo[1,2-a]pyrazine]
% of activity vs. vehicle (rats): 38% | reversal of MK-801-induced memory deficits (Recognition Index) (male Long Evans rats; 0-1 min time range, Compound I-1 1 mg/kg): significantly reversed | reversal of MK-801-induced memory deficits (Recognition Index) (male Long Evans rats; 0-3 minute time range, Compound I-1 0.1 and 1 mg/kg): significantly reversed | reversal of MK-801-induced memory deficits (Recognition Index) (male Long Evans rats; 0-5 minute time range, Compound I-1 1 mg/kg): significantly reversed | Recognition Index, Mean (male Long Evans rats; I-1 (0.1 mg/kg) oral + MK-801): 60.1% | Recognition Index, Mean (male Long Evans rats; I-1 (1 mg/kg) oral + MK-801): 64.8% | Recognition Index, Mean (male Long Evans rats; I-1 (10 mg/kg) oral + MK-801): 66.8% | nociceptive threshold (paw pressure test) ([1]; D18, 60 min post administration, gabapentin 100 mg/kg p.o., morphine 4 mg/kg s.c.): 328 ± 32.6 g | nociceptive threshold (paw pressure test) ([1]; D18, 120 min post administration, gabapentin 100 mg/kg p.o., morphine 4 mg/kg s.c.): 387 ± 30.2 g | nociceptive threshold (paw pressure test) ([1]; D18, 180 min post administration): 319 ± 23.1 g | nociceptive threshold (paw pressure test) ([1]; D21, 120 min after dosing, gabapentin 100 mg/kg p.o., morphine 4 mg/kg s.c.): 346 ± 20.5 g | nociceptive threshold (paw pressure test) ([1]; D21, baseline prior to administration (Cmin, daily dosing from D18)): 259 ± 25.6 g
